# Experimental data as given in patent EP0706514B1, “COMPOUNDS AND METHODS FOR INHIBITION OF HIV AND RELATED VIRUSES” (MEDIVIR AB, priority 1993, dated 1995).
# Where “and” joins values, the source holds several entries; their conditions need not be identical. Equal entries are not always repeated. Where two headings read alike, the source gives them in different places.
# Assays:
# HIV virus = experiment: Test A (XTT): reduction of virus-induced cytotoxicity in MT4 cells; type: cell-based; conditions: for % inhibition: Test A
# Protocol: Tests A, B, C, and D (XTT)
# MT4 cells in a medium of RPMI 1640, 5% FCS, penicillin/streptomycin are adjusted to 2x10^5 cells/ml and seeded into microplates (96 wells/plate) […] cell suspension/well giving 2x10^4 cells/well. The compound to be tested is made into a 10 mg/ml mixture in DMSO and stored at -20°C. […] Further dilutions to […] are made in medium containing microplates. Fifty […] of the 400, 40, and 4 mg/ml are transferred to the cell-containing microplates with a multi-channel pipette (final concentration: […]). Finally, […] of virus suspension is added to each well (with a repetitive "Eppendorf" multipipett). […] The plate is put into a plastic bag and incubated for six days in CO2 atmosphere. To each well in the plate is added […] of XTT ((2,3-bis[2-methoxy-4-nitro-5-sulfophenyl]-5-[(phenylamin o)carbonyl]-2H-tetrazolium hydroxide), (1 mg/ml 0.01-0.02 mM N-metyl-phenazonium methosulfate). After six hours of incubation in CO2 atmosphere the plates are covered with adhesive plate sealers and gently mixed on a vortex. Optical densities are determined at a wavelength of 450 nm and a reference wavelength of 650 nm. The percent reduction of cytotoxocity caused by the virus infection is calculated as follows: (OD450 compound - OD450 inf cells)/(OD450 uninf cells - OD450 inf cells)x 100 [formula]
# recombinant HIV-RT = molecular target: T1, recombinant HIV-RT (Human immunodeficiency virus type 1 group M subtype B, UniProt P04585); experiment: biochemical
# T1 construct: recombinant HIV-RT (diluted in virus disruption buffer to give 200.000 cpm)
# Protocol: 100 mM Tris-HCl pH 7.6, 100 mM KCl, 4 mM MgCl2, 4 mM DTT, 275 mg/ml BSA, 0.5 mg (rA)n(dT)12-18 and 0.3 mM ^3H-=dTTP (specific activity 18.000 cpm/mol). After 60 minutess of incubation 40 ml in duplicate were spotted on paper discs and washed in 5% TCA. After rinsing the paper discs in ethanol they were dried and counted in scintillation fluid.
# [1] = Human immunodeficiency virus 1, MT4
# [2] = Human immunodeficiency virus 1, MT4, Test A, MT4 cells, 0.1 µg/ml, read-out: % inhibition
# [3] = Human immunodeficiency virus 1, MT4, Test A, MT4 cells, 1 µg/ml
# [4] = Human immunodeficiency virus 1, MT4, Test A, MT4 cells, 100 µg/ml, read-out: % inhibition
# [5] = IC50, Test I, several values in a cell are repeat determinations
# [6] = Test I, several values in a cell are repeat determinations, read-out: IC50 (converted)
smiles,measurement,setting,value
O=C(Nc1ccc(Cl)cn1)N[C@H]1C[C@H]1c1c(F)cccc1F,inhibition at 0.1 µg/mL,HIV virus; [1],100%
same,inhibition at 10 µg/mL,HIV virus; [1],100%
same,inhibition at 100 µg/mL,HIV virus; [1],100%
same,inhibition at 0.001 µg/mL,"HIV virus; Human immunodeficiency virus 1, MT4, Test A, MT4 cells, 0.001 µg/ml",7%
same,inhibition at 0.01 µg/mL,"HIV virus; Human immunodeficiency virus 1, MT4, Test A, MT4 cells, 0.01 µg/ml",80%
same,inhibition at 0.1 µg/mL,HIV virus; [2],82%
same,inhibition at 1 µg/mL,HIV virus; [3],86%
same,inhibition at 100 µg/mL,HIV virus; [4],3%
same,% inhibition,"HIV virus; MT4 cells, 0.001 µg/ml",8%
same,% inhibition,"HIV virus; MT4 cells, 0.01 µg/ml",81%
same,% inhibition,"HIV virus; MT4 cells, 1 µg/ml",90%
same,IC50,"recombinant HIV-RT; IC50, Test I",2.47 nM and 1.54 nM
same,% inhibition,"recombinant HIV-RT; Test I, 0.001 µg/ml",62%
same,inhibition at 0.001 µg/mL,"recombinant HIV-RT; Test I, 0.001 µg/ml",55%
same,% inhibition,"recombinant HIV-RT; Test I, 0.01 µg/ml",93%
same,inhibition at 0.01 µg/mL,"recombinant HIV-RT; Test I, 0.01 µg/ml",89%
same,inhibition at 0.1 µg/mL,"recombinant HIV-RT; Test I, 0.1 µg/ml (column 4)",98%
same,inhibition at 1 µg/mL,"recombinant HIV-RT; Test I, 1 µg/ml",100%
CCOc1ccc(F)c(CCNC(=O)Nc2ccc(Br)cn2)c1Cl,IC50,"recombinant HIV-RT; IC50, Test I",4.8 nM and 3.36 nM
same,% inhibition,"recombinant HIV-RT; Test I, 0.001 µg/ml",45%
same,inhibition at 0.001 µg/mL,"recombinant HIV-RT; Test I, 0.001 µg/ml",41%
O=C(NCCc1c(F)cccc1F)Nc1ccc(Cl)cn1,inhibition at 0.1 µg/mL,HIV virus; [2],92%
same,inhibition at 1 µg/mL,HIV virus; [3],87%
same,inhibition at 10 µg/mL,"HIV virus; Human immunodeficiency virus 1, MT4, Test A, MT4 cells, 10 µg/ml, read-out: % inhibition",93%
same,inhibition at 100 µg/mL,HIV virus; [4],0%
same,% inhibition,"HIV virus; MT4 cells, 0.001 µg/ml",6%
same,% inhibition,"HIV virus; MT4 cells, 0.01 µg/ml",51% and 94%
same,% inhibition,"HIV virus; MT4 cells, 1 µg/ml",98%
"N#Cc1ccc(NC(=O)N[C@@H]2C[C@@H]2c2c(F)cccc2F)nc1 (racemic) [Example 26, (+,-)-N-(cis-2-(2,6-Difluorophenyl)-cyclopropyl)-N'-(5-cyanopyrid-2-yl)-urea]",IC50,recombinant HIV-RT; [5],28.6 nM and 31.8 nM
"COCOc1c(C(C)=O)ccc(F)c1[C@H]1C[C@H]1NC(=O)Nc1ccc(Cl)cn1 (racemic) [Example 56, (+,-)-N-(cis-2-(5-Acetyl-2-fluoro-6-methoxymethoxyphenyl)cyclopropyl)-N'-(5-chloropyrid-2-yl)-urea]",IC50,recombinant HIV-RT; [5],5.64 nM and 5.39 nM
"CC(=O)c1ccc(F)c([C@H]2C[C@H]2NC(=O)Nc2ccc(Cl)cn2)c1O (racemic) [Example 57, (+,-)-N-(cis-2-(5-Acetyl-2-fluoro-6-hydroxyphenyl)cyclopropyl)-N'-(5-chloropyrid-2-yl)-urea]",IC50,recombinant HIV-RT; [5],1.1 nM (2×) and 1.37 nM
"O=C(Nc1ccc(Cl)cn1)N[C@@H]1C[C@@H]1c1c(F)ccc(O)c1Cl (racemic) [Example 64, (+, -)-N-(cis-2-(2-chloro-3-hydroxy-6-fluorophenyl)cyclopropyl)-N'-(5-chloropyrid-2-yl)-urea]",IC50,recombinant HIV-RT; [5],3.65 nM
"N#Cc1ccc(NC(=O)N[C@@H]2C[C@@H]2c2c(F)cccc2Cl)nc1 (relative stereo) [Example 33, N-(cis-2-(2-chloro-6-fluorophenyl)cyclopropyl)-N'-(5-cyanopyrid-2-yl)-urea]",IC50,recombinant HIV-RT; [5],1.51 nM
"O=C(Nc1ccc(Cl)cn1)N[C@@H]1C[C@@H]1c1c(F)cccc1Cl (relative stereo) [Example 34, N-(cis-2-(2-chloro-6-fluorophenyl)-cyclopropyl) -N'-(5-chloropyrid-2-yl)-urea]",IC50,recombinant HIV-RT; [5],1.18 nM
"O=C(Nc1ccc(Br)cn1)NC1CC1c1c(F)cccc1F [Example 27, (1R,2S)-N-(cis-2-(2,6-Difluorophenyl)-cyclopropyl)-N'-5-bromopyrid-2-yl)-urea]",IC50,recombinant HIV-RT; [6],1.36 nM and 1.63 nM
CC(=O)c1ccc(F)c(CCNC(=O)Nc2ccc(Cl)cn2)c1O [Example 58],IC50,recombinant HIV-RT; [6],108 nM
